Consider eight compounds from ChEMBL document CHEMBL1128004, “Ketones related to the benzoate 5-HT4 receptor antagonist RS-23597 are high affinity partial agonists” (Bioorg Med Chem Lett, 1994).

Assay [1] addresses 5-hydroxytryptamine receptor 4 (Homo sapiens) (UniProt Q13639). Description: Compound was tested for antagonist activity against 5-HT4 receptor in rat esophageal muscularis mucosae. The format is functional, tissue-based. Conditions: Muscularis mucosa, target entry is the homologue from another species.
For assay [2] the target is unchanged. Description: Compound was tested for 5-HT4 receptor in rat esophageal muscularis mucosae; Antagonist. To be noted: filed as antagonist, target entry is the homologue from another species. Type of assay: functional.
Assay [3] shares this target. Description: Intrinsic activity relative to the 5-HT was determined. The format is functional. To be noted: Rattus norvegicus.

By pKb is commonly meant −log10 of the Kb, conventionally taken in molar units.

Sequence of 5-hydroxytryptamine receptor 4 (Homo sapiens) (Q13639 whole entry): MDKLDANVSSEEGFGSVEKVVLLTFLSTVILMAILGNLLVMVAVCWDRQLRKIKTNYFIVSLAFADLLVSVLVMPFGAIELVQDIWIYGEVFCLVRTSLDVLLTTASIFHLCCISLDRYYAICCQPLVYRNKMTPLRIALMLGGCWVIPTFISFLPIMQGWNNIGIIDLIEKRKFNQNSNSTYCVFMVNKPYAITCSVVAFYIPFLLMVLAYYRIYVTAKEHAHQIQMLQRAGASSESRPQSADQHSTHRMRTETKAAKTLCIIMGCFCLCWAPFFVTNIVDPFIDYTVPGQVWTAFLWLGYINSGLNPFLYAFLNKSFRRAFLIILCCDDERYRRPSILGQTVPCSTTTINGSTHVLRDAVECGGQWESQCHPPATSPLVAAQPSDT

Regarding `CCN(CC)CCOC(=O)c1cc(Cl)c(N)cc1OC`, in assay [1], the pKb amounted to 7.3.
Compound `COc1cc(N)c(Cl)cc1C(=O)OCCCN1CCCCC1` had a negative logarithm of the Kb (pKb) in assay [1] of 7.9.
For the compound `COc1cc(N)c(Cl)cc1C(=O)CCC1CCN(CCCNS(C)(=O)=O)CC1`, the Activity result in assay [2] is “Antagonist”.
Regarding `CCN(CC)CCNC(=O)c1cc(Cl)c(N)cc1OC`, the Intrinsic activity in assay [3] amounted to 0.5.
In the case of `COc1cc(N)c(Cl)cc1C(=O)NCCN1CCCCC1`, the Intrinsic activity in assay [3] was found to be 0.6.
The compound `COc1cc(N)c(Cl)cc1C(=O)OCCN1CCCCC1` returned an Intrinsic activity in assay [3] of 0.5.
For `COc1cc(N)c(Cl)cc1C(=O)NC[C@@H]1CCN2CCC[C@@H]12`, in assay [3], the Intrinsic activity was found to be 0.6.
Still for that read-out and setting: next, `COc1cc(N)c(Cl)cc1C(=O)CCC1CCN(CCNS(C)(=O)=O)CC1`: 0.5.
